Measurements from patent US11464771B2, “Bromodomain and extra-terminal protein inhibitor combination therapy” (CELGENE QUANTICEL RESEARCH, INC., priority 2016, dated 2022).
“Also recorded” adds a separate entry of the source.

Assays:
[1] = test system: COH69 TNBC PDX-derived model; test: 3-D Matrigel colony formation, COH69; type: cell-based; settings: Homo sapiens, 7 or 14 days
Description: (§1) The effect of Compound A on colony formation in four PDX-derived breast cancer models was assessed using a 3-D Matrigel-based in vitro culture system. Compound A was tested at concentrations ranging from either 0.008 μM to 5 μM or 0.0016 μM to 1 μM in 5-fold increments. Colony formation was assessed after 7 days or 14 days of treatment by quantifying colony numbers by microscopy. […] The overall mean for the three TNBC models was 0.11±0.04 μM.

[2] = test system: MYC gene expression in Raji Burkitt's lymphoma cells; test: qRT PCR of MYC gene expression; type: cell-based; settings: Homo sapiens, mean, read-out: IC50, inhibition of MYC gene expression
Description: (§2) Regulation of MYC gene expression by BRD4 has been shown in models of Burkitt's lymphoma with inhibition of BRD4, leading to growth arrest (Mertz, 2011). Similarly, in a model of lung adenocarcinoma. BRD4 inhibition was also found to be antiproliferative; however, this effect was ascribed to FOSL1 down-regulation (Lockwood, 2012). […] (Tang, 2014). The effect of Compound A treatment on MYC FOSL1, and GLI1 gene expression was evaluated by quantitative reverse transcription polymerase chain reaction (qRT PCR).

[3] = Plasma protein binding, preclinical species; type: in vitro ADME; settings: plasmas of preclinical species
[4] = test system: GLI1 gene expression in MIA-PaCa-2 pancreatic adenocarcinoma cells; test: qRT PCR of GLI1 gene expression; type: cell-based; settings: Homo sapiens, read-out: IC50, inhibition of GLI1 gene expression
Description: as §2

[5] = Brain distribution in tumor-bearing mice; type: in vivo; settings: mouse, tumor-bearing NSG mice, read-out: brain to plasma ratio
[6] = test system: COH70 TNBC PDX subcutaneous tumor; test: Tumor growth inhibition in TNBC PDX model COH70; type: in vivo, NSG mice; settings: Day 38
Description: FIG. 1 is a graph showing dose-dependent tumor growth inhibition as measured by tumor volume in a TNBC PDX model, COH70, following dosing with Compound A (4-[2-(cyclopropylmethoxy)-5-methylsulfonylphenyl]-2-methylisoquinolin-1-one). Compound A dosing by mouth (PO) once daily for 3 consecutive days, followed by 4 days off (3×/week); —— Vehicle; - - - - Compound A 12.5 mg/kg PO 3×/week; —— —— Compound A 16 mg/kg PO 3×/week; - —— - —— Compound A 20 mg/kg PO 3×/week; SEM is the standard error of the mean.

[7] = test system: recombinant CYP enzymes; test: Metabolism by recombinant cytochrome P450 (CYP) enzymes; type: in vitro ADME
Excerpt: (§3) No unique human metabolites were identified.

[8] = target: CYP1A2 (Homo sapiens, UniProt P05177); test: CYP1A2 inhibition in vitro; type: in vitro ADME
Excerpt: (§4) Compound A has minimal potential to cause drug-drug interactions with co-administered drugs that are CYP substrates.

[9] = Human PK prediction by allometric scaling; settings: assumption used for the human prediction
Excerpt: As described herein, a battery of in vitro and in vivo studies have been conducted to characterize the absorption. PK, distribution, metabolism and elimination of Compound A. Robust and reproducible bioanalytical methods for the quantitation of Compound A levels were developed and used in PK and toxicokinetic studies. Human PK parameters and exposures were predicted using allometric scaling.

[10] = Tumor concentrations in COH70 model; type: in vivo, mice; settings: 2 hr post-dose
Description: (§5) Corresponding tumor concentrations of Compound A were determined in the COH70 model at 2, 4, and 8 hrs post-dose. Maximally-measured tumor levels of Compound A were at 2 hr post-dose and were […] and 6.7±1.7 μM at 2 mg/kg and 10 mg/kg, respectively. Modulation of MYC expression levels correlated with intra-tumor concentrations of Compound A.

[11] = target: CYP3A4 (Homo sapiens, UniProt P08684); test: CYP3A4 inhibition in vitro; type: in vitro ADME
Excerpt: as §4

[12] = NSG, mouse, in vivo, 6 weeks
[13] = test system: MYC expression in COH70 TNBC PDX tumor; test: MYC down-regulation in COH70 tumors in mice; type: in vivo
Description: as §5

[14] = test system: FOSL1 gene expression in U 87 glioblastoma cells; test: qRT PCR of FOSL1 gene expression; type: cell-based; settings: read-out: IC50, inhibition of FOSL1 gene expression
Description: as §2

[15] = test system: GBM15 GBM PDX subcutaneous tumor; test: Tumor growth inhibition in GBM PDX model GBM15; type: in vivo, mice; settings: Day 29
Description: (§6) In a GBM PDX subcutaneous model. […] Mice bearing tumors were dosed orally QD on several schedules with the cumulative weekly Compound A dose on each schedule equal to 75 mg/kg.

[16] = test system: CYP2B6; test: CYP2B6 induction in hepatocytes; type: in vitro ADME; settings: up to 10 μM
Excerpt: as §4

[17] = Metabolism in human hepatocytes; type: in vitro ADME; settings: single metabolite
Excerpt: as §3

[18] = test system: PA0165 pancreatic xenograft; test: Pancreatic xenograft PA0165, Compound A and Abraxane; type: in vivo, NSG mice
Description: Tumor volumes were plotted as mean±standard error of the mean (SEM).
Cohorts of NSG mice bearing PA0165 were treated with Abraxane 10 mg/kg, IV×3 Q4D; Compound A 25 mg/kg orally QD 3 days on then 4 days off; or with a combination of Abraxane 10 mg/kg iv Q7D and Compound A 25 or 12.5 mg/kg orally QD 3 days on then 4 days off. The treatment lasted 21 days.

[19] = Cardiovascular and respiratory safety pharmacology in conscious dogs; type: in vivo; settings: conscious Beagle dogs; GLP 4-week study
Description: Safety pharmacology evaluations were performed to determine the potential cardiovascular and respiratory effects of Compound A in conscious Beagle dogs as part of the GLP 4-week repeat-dose toxicity study.

[20] = Body weight change in GBM15 study; type: in vivo, mice
Description: as §6

[21] = Functional observational battery (FOB) in 4-week rat study; type: in vivo, rats; settings: GLP 4-week repeat-dose rat study
Description: Safety pharmacology evaluations, i.e., functional observational battery (FOB), were also performed to determine the potential central nervous system effects of Compound A as part of the GLP 4-week repeat-dose toxicity rat study.

[22] = test system: BR0869f ER-PR-Her2+ PDX-derived breast cancer model; test: 3-D Matrigel colony formation, BR0869f; type: cell-based; settings: Homo sapiens, 7 or 14 days
Description: as §1

[23] = Excretion of intact drug after IV administration in rats; type: in vivo; settings: average

Chain of CYP1A2 (P05177 whole entry): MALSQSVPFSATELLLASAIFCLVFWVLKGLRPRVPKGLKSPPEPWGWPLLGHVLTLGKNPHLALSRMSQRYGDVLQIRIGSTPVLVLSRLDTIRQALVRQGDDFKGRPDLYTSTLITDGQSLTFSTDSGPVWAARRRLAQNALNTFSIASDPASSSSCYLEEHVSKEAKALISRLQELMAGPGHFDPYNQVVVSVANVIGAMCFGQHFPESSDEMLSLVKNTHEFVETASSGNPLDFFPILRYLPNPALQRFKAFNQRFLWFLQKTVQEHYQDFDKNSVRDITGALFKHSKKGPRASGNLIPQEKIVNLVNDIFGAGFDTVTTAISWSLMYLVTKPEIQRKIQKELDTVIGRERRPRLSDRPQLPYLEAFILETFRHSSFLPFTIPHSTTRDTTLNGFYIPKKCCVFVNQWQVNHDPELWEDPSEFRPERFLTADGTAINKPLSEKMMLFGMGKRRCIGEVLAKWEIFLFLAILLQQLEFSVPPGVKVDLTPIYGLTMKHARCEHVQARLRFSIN
Chain of CYP3A4 (P08684 whole entry): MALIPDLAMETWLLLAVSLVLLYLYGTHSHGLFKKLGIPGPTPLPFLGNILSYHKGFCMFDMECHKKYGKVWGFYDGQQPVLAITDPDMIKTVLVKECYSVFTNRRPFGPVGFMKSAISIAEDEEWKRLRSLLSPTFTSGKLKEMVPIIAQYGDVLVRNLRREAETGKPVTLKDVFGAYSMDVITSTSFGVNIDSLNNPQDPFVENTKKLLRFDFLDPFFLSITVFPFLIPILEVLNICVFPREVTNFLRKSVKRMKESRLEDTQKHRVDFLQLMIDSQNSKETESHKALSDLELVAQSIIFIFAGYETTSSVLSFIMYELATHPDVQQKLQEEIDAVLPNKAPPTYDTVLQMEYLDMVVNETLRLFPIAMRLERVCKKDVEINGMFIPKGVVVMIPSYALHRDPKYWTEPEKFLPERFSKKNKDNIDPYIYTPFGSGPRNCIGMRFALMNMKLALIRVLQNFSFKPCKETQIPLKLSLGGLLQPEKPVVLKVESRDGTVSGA

Cn1cc(-c2cc(S(C)(=O)=O)ccc2OCC2CC2)c2ccccc2c1=O [Compound A, 4-[2-(cyclopropylmethoxy)-5-methylsulfonylphenyl]-2-methylisoquinolin-1-one]
IC50 [1]: 70 nM
IC50 [2]: 60 nM
fraction unbound [3]: 0.067 to 0.101
IC50 [4]: 240 nM
Kp [5]: 0.14 to 0.16
mean percent TGI ([6]; 12.5 mg/kg PO QD 3 days on/4 days off): 64%
mean percent TGI ([6]; 16 mg/kg PO QD 3 days on/4 days off): 68%
mean percent TGI ([6]; 20 mg/kg PO QD 3 days on/4 days off): 72%
CYP enzymes capable of metabolizing [7]: CYP2C9, CYP2C19 and CYP3A4
inhibition of CYP1A2 [8]: does not inhibit
oral bioavailability, average observed in pre-clinical species [9]: 62%
maximally-measured tumor level ([10]; 2 mg/kg): 1.3 ± 0.3 µM
concentration at 2 hr ([10]; mouse, tumor, 10 mg/kg, read-out: maximally-measured tumor level): 6.7 ± 1.7 µM
inhibition of CYP3A4 [11]: does not inhibit
well tolerated daily dose [12]: ≤ 25 mg/kg
maximal suppression of MYC expression ([13]; 2 mg/kg, at 2 hr, rebound to control by 8 hr): 51.3%
maximal suppression of MYC expression ([13]; 10 mg/kg, at 4 hr, no rebound by 24 hr): 63.4%
IC50 [14]: 30 nM
mean percent TGI ([15]; 15 mg/kg PO QD 5 days on/2 off (5/2)): 65%
mean percent TGI ([15]; 25 mg/kg PO QD 3 days on/4 off (3/4)): 65%
mean percent TGI ([15]; 37.5 mg/kg PO QD 2 days on/5 off (2/5)): 70%
induction of CYP2B6 [16]: not an inducer; also recorded: did not induce
metabolite identified [17]: N-desmethyl derivative
TGI ([18]; Compound A 25 mg/kg orally QD 3 days on/4 off alone, 21 days): 49.3%
survival rate ([18]; day 41, Compound A only group): about 20%
effects on electrocardiograms, heart rate, or respiratory rate [19]: no Compound A-related effects
weight loss ([20]; 15 mg/kg/dose group): −6.6%
weight loss ([20]; 25 mg/kg/dose group): −3.7%
weight loss ([20]; 37.5 mg/kg/dose group): −3.1%
FOB effects [21]: no Compound A-related FOB effects
IC50 [22]: 120 ± 10 nM
dose excreted intact in bile or urine [23]: 0.9 % of the dose
